{
  "source": "patent US9758529B2",
  "about": "“Fused dihydro-4H-pyrazolo[5,1-C][1,4]oxazinyl compounds and analogs for treating CNS disorders” (Sunovion Pharmaceuticals Inc., priority 2015, dated 2017)",
  "data": [
    {"system": "mice", "test": "Neuropharmacological Assay (SmartCube)", "type": "in vivo", "details": "i.p. 15 min before behavioral test; 3 doses, most efficacious dose(s) presented", "values": [
      {"smiles": "CN1CC(C2OCCn3nc4ccccc4c32)C1.Cl", "note": "(centres unmarked) [Compound 67, 3-(3,4-dihydro-1H-[1,4]oxazino[4,3-b]indazol-1-yl)-1-methylazetidin-1-ium chloride]", "AD: ADHD (probability of class match)": "+ (LOQ≦ + <5%)", "AG: analgesic (probability of class match)": "+ (LOQ≦ + <5%)", "AX: anxiolytic (probability of class match)": "++ (5%≦ ++ <25%)", "CE: cognitive enhancer (probability of class match)": "+ (LOQ≦ + <5%)", "DP: anti-depressant (probability of class match)": "++ (5%≦ ++ <25%)", "HA: hallucinogen (probability of class match)": "+ (LOQ≦ + <5%)", "MS: mood stabilizer (probability of class match)": "+ (LOQ≦ + <5%)", "PS: anti-psychotic (probability of class match)": "+ (LOQ≦ + <5%)", "SD: sedative hypnotic (probability of class match)": "+ (LOQ≦ + <5%)", "UN: uncharacterized CNS activity (probability of class match)": "+ (LOQ≦ + <5%)", "XG: anxiogenic (probability of class match)": "+ (LOQ≦ + <5%)"},
      {"smiles": "CNC[C@@H]1OCCn2nc3ccsc3c21", "note": "[Compound 68, (S)-1-(6,7-dihydro-9H-thieno[3′,2′:3,4]pyrazolo[5,1-c][1,4]oxazin-9-yl)-N-methylmethanamine]", "AD: ADHD (probability of class match)": "++ (5%≦ ++ <25%)", "AG: analgesic (probability of class match)": "++ (5%≦ ++ <25%)", "AX: anxiolytic (probability of class match)": "++ (5%≦ ++ <25%)", "CE: cognitive enhancer (probability of class match)": "+ (LOQ≦ + <5%)", "DP: anti-depressant (probability of class match)": "++++ (50%≦ ++++)", "HA: hallucinogen (probability of class match)": "++++ (50%≦ ++++)", "MS: mood stabilizer (probability of class match)": "+ (LOQ≦ + <5%)", "PS: anti-psychotic (probability of class match)": "+ (LOQ≦ + <5%)", "SD: sedative hypnotic (probability of class match)": "++ (5%≦ ++ <25%)", "UN: uncharacterized CNS activity (probability of class match)": "++ (5%≦ ++ <25%)", "XG: anxiogenic (probability of class match)": "+ (LOQ≦ + <5%)"},
      {"smiles": "CNC[C@H]1OCCn2nc3ccsc3c21", "note": "[Compound 69, (R)-1-(6,7-dihydro-9H-thieno[3′,2′:3,4]pyrazolo[5,1-c][1,4]oxazin-9-yl)-N-methylmethanamine]", "AD: ADHD (probability of class match)": "+ (LOQ≦ + <5%)", "AG: analgesic (probability of class match)": "+ (LOQ≦ + <5%)", "AX: anxiolytic (probability of class match)": "++ (5%≦ ++ <25%)", "CE: cognitive enhancer (probability of class match)": "+ (LOQ≦ + <5%)", "DP: anti-depressant (probability of class match)": "++ (5%≦ ++ <25%)", "HA: hallucinogen (probability of class match)": "+ (LOQ≦ + <5%)", "MS: mood stabilizer (probability of class match)": "+ (LOQ≦ + <5%)", "PS: anti-psychotic (probability of class match)": "+ (LOQ≦ + <5%)", "SD: sedative hypnotic (probability of class match)": "+ (LOQ≦ + <5%)", "UN: uncharacterized CNS activity (probability of class match)": "++ (5%≦ ++ <25%)", "XG: anxiogenic (probability of class match)": "+ (LOQ≦ + <5%)"},
      {"smiles": "CNCC1OCCn2nc3ccccc3c21", "note": "(centres unmarked) [Compound I-4, (3,4-dihydro-1H-[1,4]oxazino[4,3-b]indazol-1-yl)-N-methylmethanamine]", "AD: ADHD (probability of class match)": "++ (5%≦ ++ <25%)", "AG: analgesic (probability of class match)": "+ (LOQ≦ + <5%)", "AX: anxiolytic (probability of class match)": "+++ (25%≦ +++ <50%)", "CE: cognitive enhancer (probability of class match)": "+ (LOQ≦ + <5%)", "DP: anti-depressant (probability of class match)": "++++ (50%≦ ++++)", "HA: hallucinogen (probability of class match)": "++ (5%≦ ++ <25%)", "MS: mood stabilizer (probability of class match)": "+ (LOQ≦ + <5%)", "PS: anti-psychotic (probability of class match)": "+ (LOQ≦ + <5%)", "SD: sedative hypnotic (probability of class match)": "++ (5%≦ ++ <25%)", "UN: uncharacterized CNS activity (probability of class match)": "+ (LOQ≦ + <5%)", "XG: anxiogenic (probability of class match)": "+ (LOQ≦ + <5%)"}
    ]}
  ]
}
